The source made the active and inactive calls. The rule behind the calls is not given here.
Tested on: CCRIS mutagenicity, Ames/micronucleus/aberration tests
Assay: CCRIS mutagenicity studies
[1] = Test System: AMES SALMONELLA TYPHIMURIUM, Strain/Indicator: TA98, Metabolic Activation: NONE, Method: STANDARD PLATE
[2] = Test System: AMES SALMONELLA TYPHIMURIUM, Strain/Indicator: TA100, Metabolic Activation: NONE, Method: STANDARD PLATE

Measured: mutagenic call

CC1(C)[C@@H](O[C@H]2O[C@H](C(=O)O)[C@@H](O)[C@H](O)[C@H]2O[C@@H]2O[C@H](C(=O)O)[C@@H](O)[C@H](O)[C@H]2O)CC[C@]2(C)[C@H]3C(=O)C=C4[C@@H]5C[C@@](C)(C(=O)O)CC[C@]5(C)CC[C@@]4(C)[C@]3(C)CC[C@@H]12
inactive: End Point: IN VIVO MICRONUCLEUS, Test System: BONE MARROW POLYCHROMATIC ERYTHROCYTES, Species: MOUSE, Strain/Sex: DDY/MALE, Route: IP inactive; negative | Test System: AMES SALMONELLA TYPHIMURIUM, Strain/Indicator: TA97A, Metabolic Activation: NONE, Method: PREINCUBATION inactive; negative | Test System: AMES SALMONELLA TYPHIMURIUM, Strain/Indicator: TA97A, Metabolic Activation: RAT, LIVER, S-9, AROCLOR 1254, Method: PREINCUBATION inactive; negative | [1] inactive; negative | Test System: AMES SALMONELLA TYPHIMURIUM, Strain/Indicator: TA98, Metabolic Activation: RAT, LIVER, S-9, AROCLOR 1254, Method: STANDARD PLATE inactive; negative | [2] inactive; negative | Test System: AMES SALMONELLA TYPHIMURIUM, Strain/Indicator: TA100, Metabolic Activation: RAT, LIVER, S-9, AROCLOR 1254, Method: STANDARD PLATE inactive; negative | Test System: AMES SALMONELLA TYPHIMURIUM, Strain/Indicator: TA102, Metabolic Activation: NONE, Method: PREINCUBATION inactive; negative | Test System: AMES SALMONELLA TYPHIMURIUM, Strain/Indicator: TA102, Metabolic Activation: RAT, LIVER, S-9, AROCLOR 1254, Method: PREINCUBATION inactive; negative | Test System: AMES SALMONELLA TYPHIMURIUM, Strain/Indicator: TA1535, Metabolic Activation: NONE, Method: STANDARD PLATE inactive; negative | Test System: AMES SALMONELLA TYPHIMURIUM, Strain/Indicator: TA1535, Metabolic Activation: RAT, LIVER, S-9, AROCLOR 1254, Method: STANDARD PLATE inactive; negative | Test System: AMES SALMONELLA TYPHIMURIUM, Strain/Indicator: TA1537, Metabolic Activation: NONE, Method: STANDARD PLATE inactive; negative | Test System: AMES SALMONELLA TYPHIMURIUM, Strain/Indicator: TA1537, Metabolic Activation: RAT, LIVER, S-9, AROCLOR 1254, Method: STANDARD PLATE inactive; negative | Test System: AMES SALMONELLA TYPHIMURIUM, Strain/Indicator: TA1538, Metabolic Activation: NONE, Method: STANDARD PLATE inactive; negative | Test System: AMES SALMONELLA TYPHIMURIUM, Strain/Indicator: TA1538, Metabolic Activation: RAT, LIVER, S-9, AROCLOR 1254, Method: STANDARD PLATE inactive; negative | Test System: E. COLI, Strain/Indicator: WP2, Metabolic Activation: NONE, Method: STANDARD PLATE inactive; negative | Test System: E. COLI, Strain/Indicator: WP2, Metabolic Activation: RAT, LIVER, S-9, AROCLOR 1254, Method: STANDARD PLATE inactive; negative

C[C@H](CC1=C(C=O)CO[C@@H]1O)C1=CCC(C)(C)C1
inactive: [1] inactive; negative | [2] inactive; negative | Test System: AMES SALMONELLA TYPHIMURIUM, Strain/Indicator: TA2637, Metabolic Activation: NONE, Method: STANDARD PLATE inactive; negative

Reference: PubChem BioAssay AID1259407 (Chemical Carcinogenesis Research Information System (CCRIS), 2018)
